Legend:
[1] = biological target: Human Cbl-b (residues 40-426) (Homo sapiens (Human), UniProt Q13191); test: Cbl-b SPR assay; type: binding; settings: for Fold of selectivity: C-cbl SPR Kd vs Cbl-b SPR Kd; for Kd: SPR, 20° C.
Summary of the method: (§1)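 Where a chaser compound was used, % compound bound was calculated as (1−(RUT/RUT0))*100 relative to a prior chaser injection and fitted to a single exponential for kd. The single cycle titration (max 500 nM) was then fitted with kd held fixed.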

[2] = biological target: c-Cbl (Homo sapiens (Human), UniProt P22681); test: C-Cbl LCK Ub TR-FRET assay (C-cbl Lck HTRF); type: biochemical
c-Cbl, sequence (P22681 47-435): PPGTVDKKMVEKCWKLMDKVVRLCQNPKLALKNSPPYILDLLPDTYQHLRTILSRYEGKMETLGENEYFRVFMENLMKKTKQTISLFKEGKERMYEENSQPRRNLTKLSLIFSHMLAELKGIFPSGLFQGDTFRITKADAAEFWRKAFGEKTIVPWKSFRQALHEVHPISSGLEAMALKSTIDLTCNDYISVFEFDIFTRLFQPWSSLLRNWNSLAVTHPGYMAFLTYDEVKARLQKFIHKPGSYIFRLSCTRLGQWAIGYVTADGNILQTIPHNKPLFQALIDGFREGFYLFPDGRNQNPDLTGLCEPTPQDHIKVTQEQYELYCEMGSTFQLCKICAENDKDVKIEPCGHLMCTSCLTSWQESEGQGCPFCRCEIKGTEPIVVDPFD
Summary of the method: (§2)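 Detection reagents added, brief spin, 20 min RT. IC50 fit normalized to no-LCK (low) and DMSO (high) controls.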

[3] = biological target: Cbl-b (Homo sapiens (Human), UniProt Q13191); test: Cbl-b LCK Ub TR-FRET assay (Cbl-b Lck HTRF); type: biochemical; settings: for IC50: Cbl-b LCK Ub TR-FRET; for fold-selectivity (Cbl-b over C-cbl) / (fold-selectivity) Cbl-b and C-Cbl Selectivity: ratio C-cbl Lck HTRF IC50 / Cbl-b Lck HTRF IC50
Cbl-b, sequence (Q13191 40-426): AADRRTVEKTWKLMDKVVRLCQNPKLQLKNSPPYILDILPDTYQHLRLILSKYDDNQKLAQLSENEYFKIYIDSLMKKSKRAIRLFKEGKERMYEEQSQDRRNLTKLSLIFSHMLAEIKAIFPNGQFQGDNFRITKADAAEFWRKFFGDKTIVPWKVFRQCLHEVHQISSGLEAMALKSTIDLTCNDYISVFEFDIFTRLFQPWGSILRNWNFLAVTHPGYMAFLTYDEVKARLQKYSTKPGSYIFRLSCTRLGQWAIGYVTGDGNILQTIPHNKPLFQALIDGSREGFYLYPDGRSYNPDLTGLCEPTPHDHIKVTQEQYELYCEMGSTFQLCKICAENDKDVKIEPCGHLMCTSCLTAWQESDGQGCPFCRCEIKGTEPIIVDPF
Summary of the method: as §2

[4] = biological target: c-Cbl (residues 47-435) (Homo sapiens (Human), UniProt P22681); test: c-Cbl SPR assay; type: binding; settings: 20° C.
c-Cbl (residues 47-435), sequence (P22681 47-435): as the sequence (P22681 47-435) above
Summary of the method: as §1

Human Cbl-b (residues 40-426), sequence (Q13191 40-426): as the sequence (Q13191 40-426) above

Row | Structure (SMILES) | Fold of selectivity [1] | Kd [1] | IC50 [2] | IC50 [3] | fold-selectivity (Cbl-b over C-cbl) [3] | Kd [4] | IC50 ([3]; Example 121) | (fold-selectivity) Cbl-b and C-Cbl Selectivity [3]
1 | CO[C@H]1C[C@](c2cccc(N3Cc4c(cc(CN5CCN(C)C[C@@H]5C(C)C)cc4C(F)(F)F)C3=O)c2)(c2nncn2C)C1 [Compound 180, 6-(((S)-2-isopropyl-4-methylpiperazin-1-yl)methyl)-2-(3-((1r,3S)-3-methoxy-1-(4-methyl-4H-1,2,4-triazol-3-yl)cyclobutyl)phenyl)-4-(trifluoromethyl)isoindolin-1-one] | 10.2× | 3.5 nM | 74 nM | 18 nM | 3.7x | 36 nM | – | –
2 | CO[C@H]1C[C@@](c2cccc(N3Cc4c(cccc4C(F)(F)F)C3=O)c2)(c2nncn2C)C1 [Compound 190, 2-(3-((1s,3s)-3-methoxy-1-(4-methyl-4H-1,2,4-triazol-3-yl)cyclobutyl)phenyl)-4-(trifluoromethyl)isoindolin-1-one] | 2.2× | 5200 nM | 16000 nM | 7800 nM | 2.0x | 11000 nM | – | –
3 | C[C@H](NC1(C)CCC1)c1cc2c(c(C(F)F)c1)CN(c1cccc([C@@H](c3nncn3C)C3COC3)c1)C2=O (single isomer, unassigned) [Compound 407] | 16× | 270 nM | 5700 nM | – | – | 4300 nM | 390 nM | 14x
4 | CO[C@H]1C[C@@](c2cccc(N3Cc4c(cc([C@@H](C)NC5(C)CCC5)cc4C(F)(F)F)C3=O)c2)(c2nncn2C)C1 (single isomer, unassigned) [Compound 175] | 6.4× | 0.95 nM | 9.7 nM | 9.6 nM | 1.0x | 6 nM | – | –

More lines, in order of falling Kd [1], values ahead:

Row | Fold of selectivity [1] | Kd [1] | IC50 [2] | IC50 [3] | fold-selectivity (Cbl-b over C-cbl) [3] | Kd [4] | IC50 ([3]; Example 121) | (fold-selectivity) Cbl-b and C-Cbl Selectivity [3] | Structure (SMILES)
5 | 7.6× | 16 nM | 86 nM | – | – | 120 nM | 22 nM | 4.0x | CO[C@H]1C[C@](c2cccc(N3Cc4c(cc(CN[C@H](C)C5CCC5)cc4C(F)(F)F)C3=O)c2)(c2nncn2C)C1 [Compound 467]
6 | 5.1× | 3.7 nM | 14.2 nM | 7.9 nM | (1.8x) | 19 nM | – | – | CC(C)[C@H]1CN(C)CCN1Cc1cc2c(c(C(F)(F)F)c1)CN(c1cccc([C@]3(c4nncn4C)C[C@H](C#N)C3)c1)C2=O (single isomer, unassigned) [Compound 63]
7 | 5.8× | 3.2 nM | 58 nM | 18 nM | 3.4x | 18 nM | – | – | Cn1cnnc1[C@]1(c2cc(NC3CCCC3)cc(N3Cc4c(cc(CNC5(C)CCC5)cc4C(F)(F)F)C3=O)c2)C[C@@H](C)C1 [Compound 183, 2-(3-(cyclopentylamino)-5-((1r,3r)-3-methyl-1-(4-methyl-4H-1,2,4-triazol-3-yl)cyclobutyl)phenyl)-6-(((1-methylcyclobutyl)amino)methyl)-4-(trifluoromethyl)isoindolin-1-one]
8 | 15× | 1.9 nM | 20 nM | – | – | 30 nM | 5.3 nM | 3.7x | CO[C@H]1C[C@](c2cccc(N3Cc4c(cc(CNCC5CC5(F)F)cc4C(F)(F)F)C3=O)c2)(c2nncn2C)C1 (stereo partly drawn) [Compound 482, 6-((((2,2-difluorocyclopropyl)methyl)amino)methyl)-2-(3-((1r,3r)-3-methoxy-1-(4-methyl-4H-1,2,4-triazol-3-yl)cyclobutyl)phenyl)-4-(trifluoromethyl)isoindolin-1-one]
9 | 3.4× | 1.9 nM | 7.8 nM | 6.2 nM | 1.2x | 6.5 nM | – | – | CCNc1cc([C@]2(c3nncn3C)C[C@@H](C)C2)cc(N2Cc3c(cc(CNC4(C)CCC4)cc3C(F)(F)F)C2=O)c1F [Compound 337, 2-(3-(ethylamino)-2-fluoro-5-((1s,3s)-3-methyl-1-(4-methyl-4H-1,2,4-triazol-3-yl)cyclobutyl)phenyl)-6-(((1-methylcyclobutyl)amino)methyl)-4-(trifluoromethyl)isoindolin-1-one]
10 | 3.0× | 1 nM | 35 nM | 22 nM | (1.6x) | 3 nM | – | – | CC(C)[C@H]1CN(C)CCN1Cc1cc2c(c(C(F)(F)F)c1)CN(c1cc([C@]3(c4nncn4C)C[C@H](C)C3)cc(OC3CCCC3)n1)C2=O (single isomer, unassigned) [Compound 73]

Source: US12187709B2 (Genentech, Inc., priority 2021, dated 2025)
